Positions of bridges follow the written chain, without caps; N, C: chain ends. Non-standard residues stand in square brackets, D forms with d. Residues, ends and D or L forms follow the SMILES beside them. No end group written: not given here.
Key:
[1] = test system: BALF neutrophils in female Syrian hamsters; assay: Animal model of smoking related acute lung injury (ET-1 plus cigarette smoke, BALF neutrophils); format: in vivo, hamster
Experimental: Animal models of smoking related acute lung injury. The Animal Care and Utilization Committee of the College of Pharmacy and Allied Health Professions, St. John's University approved all experimental protocols, and the research was conducted according to the requirements of NIH Guide for the Care and Use of Laboratory Animals (revised 1996).
Female Syrian hamsters, weighing approximately 100 g each, were divided into two groups as follows: Group 1 was treated IP with: 1) 500 μg of HJP272 in 0.5 mL Na2CO3 and 2) 5 μg ET-1 in 0.25 mL PBS 60 minutes later, followed immediately by exposure to cigarette smoke for two hours. This regimen was continued for three days.
Group 2 was treated IP with: 1) 0.5 mL Na2CO3 and 2) […] ET-1 in 0.25 mL PBS 60 minutes later, followed immediately by exposure to cigarette smoke for three consecutive days as per Group 1. The animals were placed in a 70×48×38 cm chamber and passively exposed to cigarette smoke produced by a TE-10 smoking machine (Teague Enterprises, Davis, Calif.) that simultaneously burned two filtered research-grade cigarettes (type 2R4F, University of Kentucky). Smoke from both the filtered and burning ends of the cigarette was collected, and then mixed together with air in a separate chamber, thus simulating second-hand smoke exposure. Each cigarette was puffed once per minute for two seconds at a flow rate of 1.05 LPM, yielding 35 mL of smoke. This cycle was repeated nine times before ejecting the cigarette and loading a new one. Proper flow rate was maintained by a vacuum pump that established negative pressure at the exhaust port. Total smoke particulates averaged 87 mg per cubic meter.
All animals were sacrificed 24 hours after completing the smoke exposure regimen to maximize the neutrophil population in the lung, and the percentage of BALF neutrophils was measured (van der Vaart et al. 2004)

[2] = test system: LPS-induced influx of neutrophils into the lung; conditions: Bhavsar et al. 2008a, 2008b; cited from earlier work
[3] = test system: LPS-stimulated pregnant mice; conditions: Koscica et al. 2004, Wang et al. 2008; cited from earlier work

Compound	melting point [°C]	other results
CCOC(=O)c1cccc(Cc2c(C(=O)OCC)n(Cc3cc4c(cc3CC)OCO4)c3ccc(OCC)cc3c2=O)c1 [Product 1b, Ethyl 6-ethoxy-3-(3-(ethoxycarbonyl)benzyl)-1-((6-ethylbenzo[d][1,3]dioxol-5-yl)methyl)-4-oxo-1,4-dihydroquinoline-2-carboxylate]	124 to 126	–
Endothelin-1 (CSCSSLMDKECVYFCHLDIIW; disulfide 1-15, 3-11; ends not checked; UniProt P05305 53-73, looked up) [ET-1, reference compound]	–	percentage of BALF neutrophils ([1]; ET-1 and room air): 1%; percentage of BALF neutrophils ([1]; ET-1 prior to cigarette smoke, smoke-only control 18%): 46%
CCCCOc1ccc2c(c1)c(=O)c(Cc1cccc(C(=O)OCC)c1)c(C(=O)OCC)n2Cc1cc2c(cc1CC)OCO2 [Product 1g, Ethyl 6-butoxy-3-(3-(ethoxycarbonyl)benzyl)-1-((6-ethylbenzo[d][1,3]dioxol-5-yl)methyl)-4-oxo-1,4-dihydroquinoline-2-carboxylate]	147 to 150	–
CCc1cc2c(cc1Cn1c(C(=O)O)c(Cc3cccc(C(=O)O)c3)c(=O)c3cc(OCC(C)C)ccc31)OCO2 [Product 1u, 3-(3-carboxybenzyl)-1-((6-ethylbenzo[d][1,3]dioxol-5-yl)methyl)-6-isobutoxy-4-oxo-1,4-dihydroquinolin-2-carboxylic]	185 to 186	–
CC(C)C[C@H](NP(=O)(O)O[C@@H]1O[C@@H](C)[C@H](O)[C@@H](O)[C@H]1O)C(=O)N[C@@H](Cc1c[nH]c2ccccc12)C(=O)O [phosphoramidon]	–	LPS-induced influx of neutrophils into the lung [2]: markedly reduces; incidence of premature delivery [3]: decreases the incidence of premature delivery
C=CCOc1ccc2c(c1)c(=O)c(Cc1cccc(C(=O)OCC)c1)c(C(=O)OCC)n2Cc1cc2c(cc1CC)OCO2 [Product 1e, Ethyl 6-(allyloxy)-3-(3-(ethoxycarbonyl)benzyl)-1-((6-ethylbenzo[d][1,3]dioxol-5-yl)methyl)-4-oxo-1,4-dihydroquinoline-2-carboxylate]	128 to 131	–
CCCCOc1ccc2c(c1)c(=O)c(Cc1cccc(C(=O)O)c1)c(C(=O)O)n2Cc1cc2c(cc1CC)OCO2 [Product 1t, 6-butoxy-3-(3-carboxybenzyl)-1-((6-ethylbenzo[d][1,3]dioxol-5-yl)methyl)-4-oxo-1,4-dihydroquinoline-2-carboxylic acid]	161 to 162	–
CCOC(=O)c1cccc(Cc2c(C(=O)OCC)n(Cc3cc4c(cc3CC)OCO4)c3ccc(OCC(C)C)cc3c2=O)c1 [Product 1h, Ethyl 3-(3-(ethoxycarbonyl)benzyl)-1-((6-ethylbenzo[d][1,3]dioxol-5-yl)methyl)-6-isobutoxy-4-oxo-1,4-dihydroquinoline-2-carboxylate]	129 to 132	–
CCCCCOc1ccc2c(c1)c(=O)c(Cc1cccc(C(=O)OCC)c1)c(C(=O)OCC)n2Cc1cc2c(cc1CC)OCO2 [Product 1k, Ethyl 3-(3-(ethoxycarbonyl)benzyl)-1-((6-ethylbenzo[d][1,3]dioxol-5-yl)methyl)-4-oxo-6-(pentyloxy)-1,4-dihydroquinoline-2-carboxylate]	98 to 99	–
CCOC(=O)c1cccc(Cc2c(C(=O)OCC)n(Cc3cc4c(cc3CC)OCO4)c3ccc(OC(C)C)cc3c2=O)c1 [Product 1d, Ethyl 3-(3-(ethoxycarbonyl)benzyl)-1-((6-ethylbenzo[d][1,3]dioxol-5-yl)methyl)-6-isopropoxy-4-oxo-1,4-dihydroquinoline-2-carboxylate]	124 to 126	–
CCOC(=O)c1cccc(Cc2c(C(=O)OCC)n(Cc3cc4c(cc3CC)OCO4)c3ccc(O)cc3c2=O)c1 [Product 1a, Ethyl 3-(3-(ethoxycarbonyl)benzyl)-1-((6-ethylbenzo[d][1,3]dioxol-5-yl)methyl)-6-hydroxy-4-oxo-1,4-dihydroquinoline-2-carboxylate]	232 to 234	–
CCOC(=O)c1cccc(Cc2c(C(=O)OCC)n(Cc3cc4c(cc3CC)OCO4)c3ccc(OC(C)CC)cc3c2=O)c1 (stereo not drawn) [Product 1i, Ethyl 6-sec-butoxy-3-(3-(ethoxycarbonyl)benzyl)-1-((6-ethylbenzo[d][1,3]dioxol-5-yl)methyl)-4-oxo-1,4-dihydroquinoline-2-carboxylate]	129 to 132	–
CCCOc1ccc2c(c1)c(=O)c(Cc1cccc(C(=O)OCC)c1)c(C(=O)OCC)n2Cc1cc2c(cc1CC)OCO2 [Product 1c, Ethyl 3-(3-(ethoxycarbonyl)benzyl)-1-((6-ethylbenzo[d][1,3]dioxol-5-yl)methyl)-4-oxo-6-propoxy-1,4-dihydroquinoline-2-carboxylate]	134 to 135	–
CC(C)C[C@@H]1NC(=O)[C@@H](C(C)C)NC(=O)[C@@H]2CCCN2C(=O)[C@@H](CC(=O)O)NC(=O)[C@@H](Cc2c[nH]c3ccccc23)NC1=O [BQ-123] (cyclo(L[dW][dD]P[dV]))	–	incidence of premature delivery [3]: decreased incidence of premature delivery

More lines, main results first:

melting point [°C]	Compound	other results
152 to 155	CCCCCOc1ccc2c(c1)c(=O)c(Cc1cccc(C(=O)O)c1)c(C(=O)O)n2Cc1cc2c(cc1CC)OCO2 [Product 1x, 3-(3-carboxybenzyl)-1-((6-ethylbenzo[d][1,3]dioxol-5-yl)methyl)-4-oxo-6-(pentyloxy)-1,4-dihydroquinoline-2-carboxylic acid]	–
192 to 194	CCc1cc2c(cc1Cn1c(C(=O)O)c(Cc3cccc(C(=O)O)c3)c(=O)c3cc(OCCCO)ccc31)OCO2 [Product 1y, 3-(3-carboxybenzyl)-1-((6-ethylbenzo[d][1,3]dioxol-5-yl)methyl)-6-(3-hydroxypropoxy)-4-oxo-1,4-dihydroquinoline-2-carboxylic acid]	–
162 to 163	CCCOc1ccc2c(c1)c(=O)c(Cc1cccc(C(=O)O)c1)c(C(=O)O)n2Cc1cc2c(cc1CC)OCO2 [Product 1p, 3-(3-carboxybenzyl)-1-((6-ethylbenzo[d][1,3]dioxol-5-yl)methyl)-4-oxo-6-propoxy-1,4-dihydroquinoline-2-carboxylic acid]	–
129 to 132	CCOC(=O)c1cccc(Cc2c(C(=O)OCC)n(Cc3cc4c(cc3CC)OCO4)c3ccc(OCCCO)cc3c2=O)c1 [Product 1l, Ethyl 3-(3-(ethoxycarbonyl)benzyl)-1-((6-ethylbenzo[d][1,3]dioxol-5-yl)methyl)-6-(3-hydroxypropoxy)-4-oxo-1,4-dihydroquinoline-2-carboxylate]	–
165 to 166	C=CCOc1ccc2c(c1)c(=O)c(Cc1cccc(C(=O)O)c1)c(C(=O)O)n2Cc1cc2c(cc1CC)OCO2 [Product 1r, 6-(allyloxy)-3-(3-carboxybenzyl)-1-((6-ethylbenzo[d][1,3]dioxol-5-yl)methyl)-4-oxo-1,4-dihydroquinoline-2-carboxylic acid]	–
213 to 215	CCOc1ccc2c(c1)c(=O)c(Cc1cccc(C(=O)O)c1)c(C(=O)O)n2Cc1cc2c(cc1CC)OCO2 [Product 1o, 3-(3-carboxybenzyl)-6-ethoxy-1-((6-ethylbenzo[d][1,3]dioxol-5-yl)methyl)-4-oxo-1,4-dihydroquinoline-2-carboxylic acid]	–
199 to 200	CCc1cc2c(cc1Cn1c(C(=O)O)c(Cc3cccc(C(=O)O)c3)c(=O)c3cc(OC(C)C)ccc31)OCO2 [Product 1q, 3-(3-carboxybenzyl)-1-((6-ethylbenzo[d][1,3]dioxol-5-yl)methyl)-6-isopropoxy-4-oxo-1,4-dihydroquinoline-2-carboxylic acid]	–
229 to 231	CCc1cc2c(cc1Cn1c(C(=O)O)c(Cc3cccc(C(=O)O)c3)c(=O)c3cc(OCC4CC4)ccc31)OCO2 [Product 1w, 3-(3-carboxybenzyl)-6-(cyclopropylmethoxy)-1-((6-ethylbenzo[d][1,3]dioxol-5-yl)methyl)-4-oxo-1,4-dihydroquinoline-2-carboxylic acid]	–
